{"source": "paper doi:10.1101/2021.09.30.462449v1", "about": "(biorxiv, 2021)", "assay_in_all_cases": "biochemical", "key": {"SGK (SGK1)": {"target": "SGK (SGK1) (Homo sapiens, UniProt O00141)", "settings": "read-out: % inhibition mean (Z'Lyte)"}, "MAP4K2 (GCK)": {"target": "MAP4K2 (GCK) (Homo sapiens, UniProt Q12851)", "sequence (Q12851 whole entry)": "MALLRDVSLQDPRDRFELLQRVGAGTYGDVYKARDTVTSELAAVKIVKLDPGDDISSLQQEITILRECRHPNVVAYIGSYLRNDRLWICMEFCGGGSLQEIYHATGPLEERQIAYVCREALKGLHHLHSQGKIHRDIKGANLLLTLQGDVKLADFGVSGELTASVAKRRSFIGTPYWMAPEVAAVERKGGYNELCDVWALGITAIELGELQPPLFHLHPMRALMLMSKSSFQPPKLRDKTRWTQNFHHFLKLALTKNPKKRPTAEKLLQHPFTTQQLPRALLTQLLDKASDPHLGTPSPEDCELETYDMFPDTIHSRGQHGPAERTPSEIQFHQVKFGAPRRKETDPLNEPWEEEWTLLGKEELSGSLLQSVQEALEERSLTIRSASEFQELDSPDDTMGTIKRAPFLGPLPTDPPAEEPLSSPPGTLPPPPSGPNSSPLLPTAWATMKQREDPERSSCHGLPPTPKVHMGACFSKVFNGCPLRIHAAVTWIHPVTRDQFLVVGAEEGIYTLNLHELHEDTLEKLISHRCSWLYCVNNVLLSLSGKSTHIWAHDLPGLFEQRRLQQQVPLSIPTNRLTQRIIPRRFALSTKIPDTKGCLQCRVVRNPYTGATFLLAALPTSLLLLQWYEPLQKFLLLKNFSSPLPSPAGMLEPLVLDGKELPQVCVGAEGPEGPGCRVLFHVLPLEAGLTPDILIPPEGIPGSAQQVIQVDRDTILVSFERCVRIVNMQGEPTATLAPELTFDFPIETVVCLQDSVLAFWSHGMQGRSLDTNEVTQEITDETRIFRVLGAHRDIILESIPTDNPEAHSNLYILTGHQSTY", "settings": "read-out: % inhibition mean (Z'Lyte)"}, "PTK2B (FAK2)": {"target": "PTK2B (FAK2) (Homo sapiens, UniProt Q14289)", "settings": "read-out: % inhibition mean (Z'Lyte)"}, "AMPK (A1/B2/G3)": {"target": "AMPK (A1/B2/G3) (Homo sapiens, UniProt Q13131)", "sequence (Q13131 whole entry)": "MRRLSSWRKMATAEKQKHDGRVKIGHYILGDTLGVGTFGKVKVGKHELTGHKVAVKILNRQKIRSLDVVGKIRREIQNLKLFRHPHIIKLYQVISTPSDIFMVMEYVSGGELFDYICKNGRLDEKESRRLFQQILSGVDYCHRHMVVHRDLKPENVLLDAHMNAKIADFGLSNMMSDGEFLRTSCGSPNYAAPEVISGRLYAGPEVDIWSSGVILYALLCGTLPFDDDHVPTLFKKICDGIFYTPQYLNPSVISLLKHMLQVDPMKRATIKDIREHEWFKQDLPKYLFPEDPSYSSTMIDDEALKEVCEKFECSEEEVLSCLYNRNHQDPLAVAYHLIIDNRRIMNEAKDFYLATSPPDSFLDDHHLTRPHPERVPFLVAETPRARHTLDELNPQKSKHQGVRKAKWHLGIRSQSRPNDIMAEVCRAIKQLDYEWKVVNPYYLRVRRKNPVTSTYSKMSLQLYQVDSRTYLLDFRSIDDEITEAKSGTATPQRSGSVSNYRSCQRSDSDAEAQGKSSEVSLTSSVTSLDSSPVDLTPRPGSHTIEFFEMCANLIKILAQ", "sequence (O43741 whole entry partner)": "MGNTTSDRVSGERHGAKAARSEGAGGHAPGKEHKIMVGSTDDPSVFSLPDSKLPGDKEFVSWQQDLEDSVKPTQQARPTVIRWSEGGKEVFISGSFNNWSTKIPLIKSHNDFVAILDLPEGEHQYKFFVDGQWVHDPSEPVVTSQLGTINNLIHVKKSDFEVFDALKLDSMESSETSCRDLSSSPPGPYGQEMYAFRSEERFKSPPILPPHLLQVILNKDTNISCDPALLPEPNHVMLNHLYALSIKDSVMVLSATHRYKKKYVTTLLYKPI", "sequence (Q9UGI9 whole entry partner)": "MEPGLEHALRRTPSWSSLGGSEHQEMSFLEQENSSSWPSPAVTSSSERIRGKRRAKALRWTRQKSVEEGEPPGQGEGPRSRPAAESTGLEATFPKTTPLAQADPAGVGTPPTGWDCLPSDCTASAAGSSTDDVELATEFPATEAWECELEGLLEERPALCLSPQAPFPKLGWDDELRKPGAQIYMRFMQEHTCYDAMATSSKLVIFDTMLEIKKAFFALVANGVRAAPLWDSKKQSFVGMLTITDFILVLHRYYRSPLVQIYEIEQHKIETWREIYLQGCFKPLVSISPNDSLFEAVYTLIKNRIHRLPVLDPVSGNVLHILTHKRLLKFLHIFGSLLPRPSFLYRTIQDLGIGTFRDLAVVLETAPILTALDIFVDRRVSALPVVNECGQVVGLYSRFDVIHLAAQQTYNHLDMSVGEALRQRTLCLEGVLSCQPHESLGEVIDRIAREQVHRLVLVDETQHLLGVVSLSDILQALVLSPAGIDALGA", "settings": "read-out: % inhibition mean (Z'Lyte)"}, "PDGFRA T674I": {"target": "PDGFRA T674I (Homo sapiens, UniProt P16234, T674I)", "settings": "read-out: % inhibition mean (Z'Lyte)"}, "MAP3K8 (COT)": {"target": "MAP3K8 (COT) (Homo sapiens, UniProt P41279)", "sequence (P41279 whole entry)": "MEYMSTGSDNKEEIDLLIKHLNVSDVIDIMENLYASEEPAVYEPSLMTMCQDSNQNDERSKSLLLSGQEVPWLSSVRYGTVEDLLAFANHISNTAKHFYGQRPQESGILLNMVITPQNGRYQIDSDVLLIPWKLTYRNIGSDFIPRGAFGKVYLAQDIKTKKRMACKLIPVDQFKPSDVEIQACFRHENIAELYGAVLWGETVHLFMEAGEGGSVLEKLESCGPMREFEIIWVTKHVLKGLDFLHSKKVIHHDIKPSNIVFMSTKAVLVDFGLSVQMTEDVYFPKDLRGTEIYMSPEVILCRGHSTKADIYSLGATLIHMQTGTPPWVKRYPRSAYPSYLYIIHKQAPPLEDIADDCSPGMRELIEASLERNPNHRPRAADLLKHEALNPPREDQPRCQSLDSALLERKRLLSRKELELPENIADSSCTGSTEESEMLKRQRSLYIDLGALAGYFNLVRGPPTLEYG", "settings": "read-out: % inhibition mean (Z'Lyte)"}, "MAPK12 (p38 gamma)": {"target": "MAPK12 (p38 gamma) (Homo sapiens, UniProt P53778)", "settings": "read-out: % inhibition mean (Z'Lyte)"}, "MAPK10 (JNK3)": {"target": "MAPK10 (JNK3) (Homo sapiens, UniProt P53779)", "sequence (P53779 whole entry)": "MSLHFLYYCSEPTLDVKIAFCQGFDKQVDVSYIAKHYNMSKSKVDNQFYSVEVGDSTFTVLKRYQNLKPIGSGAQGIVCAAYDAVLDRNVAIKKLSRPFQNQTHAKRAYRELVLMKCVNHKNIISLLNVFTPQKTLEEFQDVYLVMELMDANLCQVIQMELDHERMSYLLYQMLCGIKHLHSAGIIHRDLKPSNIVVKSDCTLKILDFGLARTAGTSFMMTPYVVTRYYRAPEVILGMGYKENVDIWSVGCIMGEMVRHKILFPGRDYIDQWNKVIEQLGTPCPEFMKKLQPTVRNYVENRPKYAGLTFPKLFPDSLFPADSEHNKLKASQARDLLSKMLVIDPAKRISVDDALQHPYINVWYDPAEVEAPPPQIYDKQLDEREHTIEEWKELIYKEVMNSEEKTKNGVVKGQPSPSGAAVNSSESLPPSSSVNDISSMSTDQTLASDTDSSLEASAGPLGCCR", "settings": "read-out: % inhibition mean (Z'Lyte)"}, "CDC42 BPA (MRCKA)": {"target": "CDC42 BPA (MRCKA) (Homo sapiens, UniProt Q5VT25)", "settings": "read-out: % inhibition mean (Z'Lyte)"}, "CAMK1D (CaMKI delta)": {"target": "CAMK1D (CaMKI delta) (Homo sapiens, UniProt Q8IU85)", "sequence (Q8IU85 whole entry)": "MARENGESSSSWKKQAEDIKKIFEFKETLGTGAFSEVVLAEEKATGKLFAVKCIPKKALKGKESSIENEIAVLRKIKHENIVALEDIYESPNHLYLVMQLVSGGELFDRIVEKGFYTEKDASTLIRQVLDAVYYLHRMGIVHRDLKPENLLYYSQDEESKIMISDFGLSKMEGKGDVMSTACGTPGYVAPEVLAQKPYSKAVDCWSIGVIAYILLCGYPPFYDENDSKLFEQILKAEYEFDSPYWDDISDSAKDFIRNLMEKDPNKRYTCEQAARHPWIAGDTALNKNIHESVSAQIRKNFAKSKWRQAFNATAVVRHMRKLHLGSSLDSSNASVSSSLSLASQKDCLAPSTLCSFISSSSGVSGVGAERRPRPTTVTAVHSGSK", "settings": "read-out: % inhibition mean (Z'Lyte)"}, "AMPK A2/B1/G1": {"target": "AMPK A2/B1/G1 (Homo sapiens, UniProt P54646)", "settings": "read-out: % inhibition mean (Z'Lyte)"}, "MET (cMet)": {"target": "MET (cMet) (Homo sapiens, UniProt P08581)", "settings": "read-out: % inhibition mean (Z'Lyte)"}, "LYN A": {"target": "LYN A (Homo sapiens, UniProt P07948)", "settings": "read-out: % inhibition mean (Z'Lyte)"}, "KIT T670I": {"target": "KIT T670I (Homo sapiens, UniProt P10721, T670I)", "settings": "read-out: % inhibition mean (Z'Lyte)"}, "ABL1 T315I": {"target": "ABL1 T315I (Homo sapiens, UniProt P00519, T315I)", "settings": "read-out: % inhibition mean (Z'Lyte)"}, "MKNK1 (MNK1)": {"target": "MKNK1 (MNK1) (Homo sapiens, UniProt Q9BUB5)", "settings": "read-out: % inhibition mean (Z'Lyte)"}, "RET V804E": {"target": "RET V804E (Homo sapiens, UniProt P07949, V804E)", "settings": "read-out: % inhibition mean (Z'Lyte)"}, "LTK (TYK1)": {"target": "LTK (TYK1) (Homo sapiens, UniProt P29376)", "settings": "read-out: % inhibition mean (Z'Lyte)"}, "DYRK1B": {"target": "DYRK1B (Homo sapiens, UniProt Q9Y463)", "sequence (Q9Y463 whole entry)": "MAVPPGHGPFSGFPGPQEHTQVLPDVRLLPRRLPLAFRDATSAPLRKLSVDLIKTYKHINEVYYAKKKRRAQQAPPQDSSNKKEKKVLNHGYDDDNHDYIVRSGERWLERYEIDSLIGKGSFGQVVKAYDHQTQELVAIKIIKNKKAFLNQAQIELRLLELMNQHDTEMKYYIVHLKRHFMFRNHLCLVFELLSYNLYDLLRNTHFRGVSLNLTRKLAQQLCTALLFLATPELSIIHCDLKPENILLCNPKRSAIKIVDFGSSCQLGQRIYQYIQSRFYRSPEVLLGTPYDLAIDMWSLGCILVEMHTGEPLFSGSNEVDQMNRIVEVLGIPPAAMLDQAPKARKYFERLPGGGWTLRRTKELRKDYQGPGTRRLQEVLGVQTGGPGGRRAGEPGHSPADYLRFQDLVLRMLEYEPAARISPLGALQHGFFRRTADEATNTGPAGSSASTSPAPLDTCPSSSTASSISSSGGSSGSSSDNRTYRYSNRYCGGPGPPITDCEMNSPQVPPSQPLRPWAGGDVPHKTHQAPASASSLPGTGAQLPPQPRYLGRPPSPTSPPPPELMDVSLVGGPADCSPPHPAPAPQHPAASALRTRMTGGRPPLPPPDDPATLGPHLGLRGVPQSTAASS", "settings": "read-out: % inhibition mean (Z'Lyte)"}, "PDK1": {"target": "PDK1 (Homo sapiens, UniProt O15530)", "sequence (O15530 whole entry)": "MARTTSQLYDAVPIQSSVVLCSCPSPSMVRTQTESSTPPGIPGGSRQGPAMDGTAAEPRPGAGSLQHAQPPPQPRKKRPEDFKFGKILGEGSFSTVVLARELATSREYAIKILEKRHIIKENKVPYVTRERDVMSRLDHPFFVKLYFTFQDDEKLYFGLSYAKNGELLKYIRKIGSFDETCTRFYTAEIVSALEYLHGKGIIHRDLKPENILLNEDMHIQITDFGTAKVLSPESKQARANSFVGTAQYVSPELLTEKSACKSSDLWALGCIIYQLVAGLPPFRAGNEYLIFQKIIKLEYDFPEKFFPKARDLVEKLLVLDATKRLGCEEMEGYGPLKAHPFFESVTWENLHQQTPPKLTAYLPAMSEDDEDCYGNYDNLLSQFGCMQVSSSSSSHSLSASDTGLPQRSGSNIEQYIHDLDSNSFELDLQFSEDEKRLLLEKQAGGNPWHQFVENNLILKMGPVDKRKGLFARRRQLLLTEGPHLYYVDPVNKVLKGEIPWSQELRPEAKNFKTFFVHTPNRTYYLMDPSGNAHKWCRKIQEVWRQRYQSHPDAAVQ"}, "MLCK (MLCK2)": {"target": "MLCK (MLCK2) (Homo sapiens, UniProt Q32MK0)", "settings": "read-out: % inhibition mean (Lanthascreen)"}}, "note": "Read-outs that look alike come from different tables or passages of the source.", "data": [{"smiles": "COc1ccc2nc3cc(Cl)ccc3c(Nc3cc(CN4CCCC4)c(O)c(CN4CCCC4)c3)c2n1", "note": "[Pyronaridine, 4-[(7-Chloro-2-methoxybenzo[b][1,5]naphthyridin-10-yl)amino]-2,6-bis(1-pyrrolidinylmethyl)phenol phosphate (1:4)]", "values": [{"measurement": "inhibition at 1 µM", "setting": "SGK (SGK1)", "result": 4, "unit": "%"}, {"measurement": "inhibition at 1 µM", "setting": "MAP4K2 (GCK)", "result": 5, "unit": "%"}, {"measurement": "inhibition at 1 µM", "setting": "PTK2B (FAK2)", "result": -1, "unit": "%"}, {"measurement": "inhibition at 1 µM", "setting": "AMPK (A1/B2/G3)", "result": 4, "unit": "%"}, {"measurement": "inhibition at 1 µM", "setting": "PDGFRA T674I", "result": 0, "unit": "%"}, {"measurement": "inhibition at 1 µM", "setting": "MAP3K8 (COT)", "result": -6, "unit": "%"}, {"measurement": "inhibition at 1 µM", "setting": "MAPK12 (p38 gamma)", "result": 7, "unit": "%"}, {"measurement": "inhibition at 1 µM", "setting": "MAPK10 (JNK3)", "result": 0, "unit": "%"}, {"measurement": "inhibition at 1 µM", "setting": "CDC42 BPA (MRCKA)", "result": 2, "unit": "%"}, {"measurement": "inhibition at 1 µM", "setting": "CAMK1D (CaMKI delta)", "result": -26, "unit": "%"}, {"measurement": "inhibition at 1 µM", "setting": "AMPK A2/B1/G1", "result": 2, "unit": "%"}, {"measurement": "inhibition at 1 µM", "setting": "MET (cMet)", "result": -1, "unit": "%"}, {"measurement": "inhibition at 1 µM", "setting": "LYN A", "result": -2, "unit": "%"}, {"measurement": "inhibition at 1 µM", "setting": "KIT T670I", "result": 1, "unit": "%"}, {"measurement": "inhibition at 1 µM", "setting": "ABL1 T315I", "result": 11, "unit": "%"}, {"measurement": "inhibition at 1 µM", "setting": "MKNK1 (MNK1)", "result": 4, "unit": "%"}, {"measurement": "inhibition at 1 µM", "setting": "RET V804E", "result": 2, "unit": "%"}, {"measurement": "inhibition at 1 µM", "setting": "LTK (TYK1)", "result": -1, "unit": "%"}, {"measurement": "inhibition at 1 µM", "setting": "DYRK1B", "result": 1, "unit": "%"}, {"measurement": "inhibition at 1 µM", "setting": "PDK1; read-out: % inhibition mean (Z'Lyte)", "result": 0, "unit": "%"}, {"measurement": "inhibition at 1 µM", "setting": "PDK1; read-out: % inhibition mean (Z'Lyte), direct format", "result": 7, "unit": "%"}, {"measurement": "inhibition at 1 µM", "setting": "MLCK (MLCK2)", "result": -6, "unit": "%"}]}]}
